Results reported in patent US20210317102A1, “INHIBITORS OF INTEGRATED STRESS RESPONSE PATHWAY” (Praxis Biotech LLC, priority 2019, published 2021).

Tests used:
male Balb/c mice = assay: Fasting-induced muscle atrophy; assay type: in vivo; details: fasted mice, 10 mg/kg oral, compared to vehicle-treated fasted mice
Method: Wild type eight-weeks-old male Balb/c mice obtained from the vivarium Fundación Ciencia & Vida Chile (Santiago, Chile) are used. Mice are housed in independent plastic cages in a room maintained at 25° C. with a 12-h:12-h light:dark cycle.
Twenty-four hours before and during the 2 days of fasted procedures, animals receive oral administration via feeding tubes (15 gauge) of vehicle (50% Polyethylene glycol 400 (Sigma-Aldrich P3265) in distilled water or 10 mg/kg of test compound formulated in vehicle solution.
After 2 days of fasting the animals are sacrificed and muscles are removed from both hindlimbs. Mice with feed and water ad libitum are used as control. […]
Upon collection, muscles are immediately frozen in liquid nitrogen and then stored at −80° C. […] Protein concentration in supernatants is determined using BCA Protein Assay Kit (Pierce). […]
Puromycin (12D10) (Merck Millipore), MuRF-1 (Santa Cruz Biotechnology) and 3-actin (Sigma-Aldrich) antibodies are used as primary antibodies. […] Quantification of protein bands is done by densitometry using ImageJ software.
Expression of the muscle atrophy marker MuRF-1 in quadriceps from fed or fasted mice treated with vehicle or compound 11 is shown in FIG. 1D. The levels were normalized to β-actin expression and fold change was calculated as the level relative to MuRF-1 levels from control mice (Fed) which correspond to 1.

[1] = system: ATF4 expression, HEK293T cells carrying the ATF4 luciferase reporter; assay: ATF4 expression inhibition assay (ATF4 luciferase reporter); assay type: cell-based; details: Homo sapiens, HEK-293T, 100 nM thapsigargin, 3 hours
Method: The ATF4 reporter was prepared by fusing the human full length 5′UTR of ATF4 (NCBI Accession No. BC022088.2) upstream of the firefly luciferase coding sequence lacking the initiator methionine. The fused sequence was cloned into pLenti-EFla-C-Myc-DDK-IRES-Puro cloning vector (Origen #PS100085) using standard methods. Virus production was carried out by using Lenti-X™ Packaging Single Shots Protocol (Clonetech #631276). Viral particles were used to transduce HEK293T cells (ATCC #CRL-3216, ATCC Manassas, Va.), which were subsequently selected with puromycin to generate stable cell line. Cells were maintained at 37° C. and 5% CO2 in DMEM-F12 (Hyclone #SH30023.02) supplemented with 10% heat-inactivated fetal bovine serum (Gibco #16000-044), 2 mM L-glutamine (Gibco #25030-081), 100 U/ml penicillin, and 100 μg/ml streptomycin (Gibco #^15140-122).
HEK293T cells carrying the ATF4 luciferase reporter were plated on 96-well plates (Nunc) at 10,000 cells per well. Cells were treated two days after seeding with 100 nM thapsigargin (Tg) (Sigma-Aldrich #T9033) in the presence of different concentrations of selected compounds ranging from 1 nM to 10 μM. Cells without treatment or cells treated with Tg alone were used as controls. Assay plates containing cells were incubated for 3 hours at 37° C.
Luciferase reactions were performed using Luciferase Assay System (Promega #E1501) as specified by the manufacturer. Luminescence was read with an integration time of 1 s and a gain of 110 using a Cytation-5 multi-mode microplate reader (BioTek). Relative luminescence units were normalized to Tg treatment (0% inhibition) and untreated cells (100% inhibition) and the percentage of ATF4 inhibition was calculated.
Accordingly, inhibition of ATF4 expression as a result of the test compound indicates suppression of the ISR pathway.

[2] = system: Chinese hamster ovary (CHO) cells; assay: Protein synthesis assay (puromycin incorporation, western blot); assay type: cell-based; details: 2 hours, media alone = 100%; for activity at 1 µM: Cricetulus griseus, unstressed CHO cells (without Tg), 1 μM test compound, read-out: % Protein synthesis relative to untreated (1 μM test compound); for % Recovery of protein synthesis (1 μM test compound): stressed CHO cells, 300 nM Tg plus 1 μM test compound, Tg alone = 0%
Method: Chinese hamster ovary (CHO) cells were maintained at 37° C. and 5% CO2 in Dulbecco's Modified Eagle's Media (DMEM) supplemented with 10% fetal bovine serum, 2 mM L-glutamine, 100 U/ml penicillin, and 100 μg/ml streptomycin. After reaching 80% of confluence, cells were detached and seeded on 6 well plates in complete media, allowed to recover overnight and treated for 2 hours with 1 μM of the test compound (to assess protein synthesis levels in unstressed condition), or for 2 hours with 300 nM Tg in the presence of 1 μM of the test compound (to assess the recovery of protein synthesis in a stressed condition). Cells with Tg alone were used as controls.
After the 2 hours treatments, media were replaced by adding 10 μg/ml puromycin (Sigma Aldrich #P8833) in complete media for 30 min. Media were removed and cells were lysed with SDS-PAGE lysis buffer. Lysates were transferred to 1.5 ml tubes and sonicated for 3 min and total protein amount were quantified using BCA Protein Assay Kit (Pierce). Equal amount of protein (30 μg) was loaded on SDS-PAGE gels. Proteins were transferred onto […] PVDF membranes (BioRad) and probed with primary antibodies diluted in Tris-buffered saline supplemented with 0.1% Tween 20 (Merck #S6996184 505) and 3% bovine serum albumin (Rockland #BSA-50).
Puromycin (12D10) (Merck #MABE343) and j-actin (Sigma Aldrich #A5441) antibodies were used as primary antibody. A HRP-conjugated secondary antibody (Rockland) was employed to detect immune-reactive bands using enhanced chemiluminescence (ECL Western Blotting Substrate, Pierce). Quantification of protein bands was done by densitometry using ImageJ software.
Percent increase of protein synthesis in unstressed cells (without Tg treatment) in the presence of media alone or certain test compounds is shown in Table 3. The percentage levels were normalized to the media alone condition, which correspond to 100% protein synthesis.
Percent recovery of protein synthesis in stressed cells (with Tg treatment) due to the test compounds at 1 μM is also shown in Table 3. The levels were normalized to the media alone and Tg alone conditions, which correspond to 100% and 0% respectively.

Row | Structure (SMILES) | Expression of the muscle atrophy marker MuRF-1 in quadriceps (male Balb/c mice) | IC50 [1] [nM] | activity at 1 µM [2] [%] | % Recovery of protein synthesis (1 μM test compound) [2] [%]
1 | O=C(COc1ccc(Cl)c(F)c1)N[C@H]1CC[C@H](CNC(=O)c2cc3cc(Cl)ccc3o2)CC1 [Compound 11, trans-5-chloro-N-((4-(2-(4-chloro-3-fluorophenoxy)acetamido)cyclohexyl)methyl)benzofuran-2-carboxamide] | reduction of MuRF-1 expression | 0.82 | 187 | 298.9
2 | CCN1C[C@@H](C(=O)N[C@H]2CC[C@H](NC(=O)COc3ccc(Cl)cc3)CC2)Oc2ccc(Cl)cc21 [Compound 89, trans-(S)-6-chloro-N-(4-(2-(4-chlorophenoxy)acetamido)cyclohexyl)-4-ethyl-3,4-dihydro-2H-benzo[b] [1,4]oxazine-2-carboxamide] | – | < 1000 | 134 | 21.5
3 | COc1cc(Cl)ccc1OCC(=O)N[C@H]1CC[C@H](NC(=O)COc2ccc(Cl)cc2)CC1 [Compound 90, trans-2-(4-chloro-2-methoxyphenoxy)-N-(4-(2-(4-chlorophenoxy)acetamido)cyclohexyl)acetamide] | – | 61.5 | 116 | –
4 | Cc1cc(Cl)ccc1OCC(=O)N[C@H]1CC[C@H](NC(=O)COc2ccc(Cl)cc2)CC1 [Compound 91, trans-2-(4-chloro-2-methylphenoxy)-N-(4-(2-(4-chlorophenoxy)acetamido)cyclohexyl)acetamide] | – | 28.7 | 94.8 | –
5 | NC(=O)c1cc(Cl)ccc1OCC(=O)N[C@H]1CC[C@H](NC(=O)COc2ccc(Cl)cc2)CC1 [Compound 92] | – | 52.2 | 79.7 | –
6 | O=C(NC[C@H]1CC[C@H](NC(=O)COc2ccc(Cl)cc2)CC1)Nc1ccc(Cl)cc1 [Compound 93, trans-2-(4-chlorophenoxy)-N-(4-((3-(4-chlorophenyl)ureido)methyl)cyclohexyl)acetamide] | – | 3.88 | 88 | 69.1
7 | O=C(COc1ccc(Cl)cc1)N[C@H]1CC[C@H](NC(=O)C2CNc3ccc(Cl)cc3O2)CC1 (stereo partly drawn) [Compound 94, trans-7-chloro-N-(4-(2-(4-chlorophenoxy)acetamido)cyclohexyl)-3,4-dihydro-2H-benzo[b] [1,4]oxazine-2-carboxamide] | – | 35.8 | 103 | 58.4
8 | O=C(COc1ccc(Cl)c(F)c1)NN1CCC(CNC(=O)c2cc3cc(Cl)ccc3o2)CC1 [Compound 95, 5-chloro-N-((1-(2-(4-chloro-3-fluorophenoxy)acetamido)piperidin-4-yl)methyl)benzofuran-2-carboxamide] | – | 2.9 | 191 | 133.4
9 | O=C(NN1CCC(CNC(=O)c2cc3cc(Cl)ccc3o2)CC1)c1ccc2cc(Cl)ccc2n1 [Compound 96, 6-chloro-N-(4-((5-chlorobenzofuran-2-carboxamido)methyl)piperidin-1-yl)quinoline-2-carboxamide] | – | 1.05 | 258 | –
10 | O=C(NCC1CCN(NC(=O)c2cc3cc(Cl)ccc3o2)CC1)c1cc2cc(Cl)ccc2o1 [Compound 97, 5-chloro-N-(4-((5-chlorobenzofuran-2-carboxamido)methyl)piperidin-1-yl)benzofuran-2-carboxamide] | – | 0.59 | 211 | 249.6
11 | O=C(COc1ccc(Cl)c(F)c1)NN1CCC(CNC(=O)c2ccc(Cl)cn2)CC1 [Compound 98, 5-chloro-N-((1-(2-(4-chloro-3-fluorophenoxy)acetamido)piperidin-4-yl)methyl)picolinamide] | – | 30.4 | -24.9 | 124.5
12 | O=C(COc1ccc(Cl)cc1)NN1CCC(CNC(=O)Nc2ccc(Cl)cc2)CC1 [Compound 99, 2-(4-chlorophenoxy)-N-(4-((3-(4-chlorophenyl)ureido)methyl)piperidin-1-yl)acetamide] | – | 14.5 | -42 | 122.3
